Data taken from the NIST ThermoML archive (doi:10.1016/j.jct.2010.04.003).
Numbers after ± are expanded uncertainties.

Settings: 101.33 kPa, Liquid, Buoyancy - hydrostatic balance with magnetic suspension - one sinker

CN(C)P(=O)(N(C)C)N(C)C [tris(dimethylamino)phosphine oxide]
mass density (288.15 K): 1028.54 ± 0.33 kg/m3 | mass density (293.15 K): 1024.33 ± 0.33 kg/m3 | mass density (298.15 K): 1020.03 ± 0.33 kg/m3 | mass density (303.15 K): 1015.86 ± 0.32 kg/m3 | mass density (308.15 K): 1011.61 ± 0.32 kg/m3
